Laboratory results published in paper PMC12655438, “Inhibitory Activity of Calcium and Sodium Ion Channels of Neurotoxic Protoplaythoa variabilis V-Shape Helical Peptide Analogs and Their Neuroprotective Effect In Vitro” (Pharmaceuticals, 2025).
Entries after “also recorded” stand apart in the source; their conditions may differ. Like-named read-outs stand apart in the source and are kept apart here. Where a SMILES comes first, the peptide text is derived from it. Bridges are numbered along the chain shown (N, C = ends).

Assays:
[1] = test system: sodium inward current (INa) in bovine chromaffin cells; experiment: Sodium current (INa) block, whole-cell patch clamp in bovine chromaffin cells; format: cell-based; settings: for Block of INa: 10 ms pulses to 0 mV, holding -80 mV, 0 mM external Ca2+, pH 7.4, 22–24 °C, end of 3-min superfusion (legend: 1 min), mean ± SEM, n = 3–6 cells; for IC50: peak INa, fit to an exponential function, 1, 3, 10 μM, read-out: IC50 for sodium current blockade
[2] = test system: intracellular calcium level ([Ca^2+]c) in bovine chromaffin cells; experiment: Intracellular calcium level with Fluo-4-AM in K+-stimulated bovine chromaffin cells; format: cell-based; settings: for Reduction of [Ca2+]c: Fluo-4, K+ stimulus (text 35 µM, legend 35 mM), room temperature, fluorescence 488/522 nm, mean ± SEM; for Reduction of fluorescence compared with baseline: p ≤ 0.001; for IC50: K+-stimulated, fit to an exponential function, 1, 3, 10 μM, read-out: IC50 for depression of the intracellular calcium increment
[3] = test system: human neuroblastoma (SH-SY5Y) cells; settings: for Cell viability: 24 h
[4] = TFA salt, lyophilized powder, ref China Peptides (custom peptide service), cited from earlier work
[5] = test system: voltage-dependent Ca^2+ channel (ICa) in bovine chromaffin cells; format: cell-based; settings: for Block of ICa: 50 ms pulses to 0 mV, holding -80 mV, 10 mM Ca2+, 5 μM TTX, pH 7.4, 22–24 °C, end of 1-min superfusion; for IC50: peak ICa, fit to an exponential function, 1, 3, 10 μM, read-out: IC50 for calcium current blockade
[6] = test system: voltage-dependent potassium current (IKv) in bovine chromaffin cells; experiment: Voltage-dependent potassium current (IKv) block, whole-cell patch clamp in bovine chromaffin cells; format: cell-based; settings: for Block of IKv: 10 µM, 400 ms pulses to 100 mV, holding -80 mV, 2 mM Ca2+, 200 μM Cd2+, 22–24 °C, mean ± SEM, n = 3–4 cells
[7] = test system: voltage-gated sodium channels in vertebrates; settings: ref [14]; cited from earlier work
From the text: (§1) Previously, we investigated the synthetic versions of the linear PpVα and the folded PpVα analog, which contains an internal single disulfide bond, and the linear, chimeric PpVα.

Cav channels (Cav2.2) = settings: cited from earlier work
zebrafish larvae = settings: cited from earlier work; for LD50 in zebrafish larvae: concentration causing 50% of death
[8] = test system: human neuroblastoma (SH-SY5Y) cells
[9] = test system: zebrafish model of epilepsy; settings: ref [14]; cited from earlier work
From the text: as §1

[10] = test system: 6-OHDA-induced neurotoxicity on zebrafish locomotor behavior; settings: ROS, dopaminergic neurons, ref [14], cited from earlier work
From the text: Previously, we investigated the synthetic versions of the linear PpVα and the folded PpVα analog, which contains an internal single disulfide bond, and the linear, chimeric PpVα. […] [17].

[11] = 1 μM, mean ± SEM, n = 3–5 cells (legend: 5–6)
[12] = 3 μM, mean ± SEM of 5–6 experiments
[13] = 10 μM, mean ± SEM of 5–6 experiments

Compound	Block of INa ([1]; 3 μM) [%]	Block of INa ([1]; 10 μM) [%]	IC50 [1] [µM]	Reduction of [Ca2+]c ([2]; 1 μM) [%]	Reduction of [Ca2+]c ([2]; 3 μM) [%]	Reduction of [Ca2+]c ([2]; 10 μM) [%]	IC50 [2] [µM]	Cell viability ([3]; 1 μM) [%]	Cell viability ([3]; 3 μM) [%]	Cell viability ([3]; 10 μM) [%]	Block of ICa [5, 11] [%]	Block of ICa [5, 13] [%]	IC50 [5] [µM]	Block of IKv [6] [%]	further results
CC[C@H](C)[C@H](NC(=O)[C@H](CC(C)C)NC(=O)[C@H](CCC(=O)O)NC(=O)CN)C(=O)N[C@@H](CCCCN)C(=O)N[C@@H](CCSC)C(=O)N[C@@H](CCCCN)C(=O)N[C@@H](Cc1ccc(O)cc1)C(=O)N[C@@H](Cc1c[nH]c2ccccc12)C(=O)N[C@H](C(=O)N[C@@H](CC(C)C)C(=O)N[C@@H](CC(N)=O)C(=O)N[C@H](C(=O)N1CCC[C@H]1C(=O)N[C@@H](C)C(=O)N[C@@H](CO)C(=O)N[C@H](C(=O)N[C@@H](CS)C(=O)N[C@@H](CC(=O)O)C(=O)N[C@@H](CCC(=O)O)C(=O)N[C@@H](Cc1ccc(O)cc1)C(=O)N[C@@H](CS)C(=O)N[C@@H](Cc1c[nH]c2ccccc12)C(=O)N[C@@H](CO)C(=O)N[C@@H](CCC(N)=O)C(=O)N[C@@H](CCSC)C(=O)N[C@@H](CC(C)C)C(=O)N[C@@H](CC(C)C)C(=O)N[C@@H](Cc1ccc(O)cc1)C(=O)N[C@@H](CCCCN)C(=O)N[C@@H](CCCCN)C(=O)N[C@@H](CO)C(N)=O)C(C)C)C(C)C)[C@@H](C)CC [CHI] (H-GELIKMKYWILNVPASVCDEYCWSQMLLYKKS-NH2; N-terminus assumed)	22.05 ± 3.61	75.57 ± 5.05	7.65	33.2 ± 9.4	36.0 ± 8.2	65.0 ± 4.7	6.89	71	73	67	10.74 ± 0.61	63.43 ± 4.76	8.88	1.21 ± 2.42	Block of INa ([1]; 1 μM): 14.79 ± 2.16%; Effect on INa at low concentrations ([1]; 1 and 3 μM): no effect on INa; Reduction of fluorescence compared with baseline ([2]; 10 μM): more than 60%; Solubility ([4]; in 20%ACN/80%H2O): 1000 µg/mL; Block of ICa [5, 12]: 14.28 ± 2.08%; Block of voltage-gated sodium channels in vertebrates [7]: effective blockers of voltage-gated sodium channels in vertebrates
COc1ccc2[nH]cc(CCNC(C)=O)c2c1 [melatonin, reference compound]															Reversion of cell damage ([3]; O/R (3 μM/4 μM) 24 h): approximately 80%; Cell viability with MLT ([3]; positive control against O/R, mean): 82%
ziconotide															Cav channel inhibition (Cav channels (Cav2.2)): highly selective and potent inhibitor of Cav channels
CC[C@H](C)[C@H](NC(=O)[C@H](Cc1c[nH]c2ccccc12)NC(=O)[C@H](Cc1ccc(O)cc1)NC(=O)[C@@H](N)CCCCN)C(=O)N[C@@H](CC(C)C)C(=O)N[C@@H](CC(N)=O)C(=O)N[C@H](C(=O)N1CCC[C@H]1C(=O)N[C@@H](C)C(=O)N[C@@H](CO)C(=O)N[C@H](C(=O)N[C@@H](CS)C(=O)N[C@@H](CC(=O)O)C(=O)N[C@@H](CCC(=O)O)C(=O)N[C@@H](Cc1ccc(O)cc1)C(=O)N[C@@H](CS)C(=O)N[C@@H](Cc1c[nH]c2ccccc12)C(=O)N[C@@H](CO)C(=O)N[C@@H](CCC(N)=O)C(=O)N[C@@H](CCSC)C(=O)N[C@@H](CC(C)C)C(=O)N[C@@H](CC(C)C)C(=O)N[C@@H](Cc1ccc(O)cc1)C(=O)N[C@@H](CCCCN)C(=O)N[C@@H](CCCCN)C(=O)N[C@@H](CO)C(N)=O)C(C)C)C(C)C [PPA] (H-KYWILNVPASVCDEYCWSQMLLYKKS-NH2; N-terminus assumed)	28.92 ± 4.60	54.32 ± 8.29	9.08	38.5 ± 7.1	38.7 ± 10.8	60.9 ± 6.1	6.95	77	71	60	19.92 ± 5.32	52.86 ± 8.69	8.77	14.04 ± 5.99	Block of INa ([1]; 1 μM): 14.80 ± 5.05%; Reduction of fluorescence compared with baseline ([2]; 10 μM): more than 60%; Solubility ([4]; in 30%ACN/70%H2O): 1000 µg/mL; Block of ICa [5, 12]: 38.50 ± 7.14%; Survival rate of zebrafish larvae (zebrafish larvae; 1–30 µM, three different times, ref [14],[53]): decrease in survival rate to a minimum, for example, within 20 min at 3 µM peptide; LD50 in zebrafish larvae (zebrafish larvae; ref [14],[53]): 21.23 µM; Neuroprotection against veratridine, in words ([8]; veratridine, 24 h): lower neuroprotection than SSB and CHI
CC[C@H](C)[C@H](NC(=O)[C@H](Cc1c[nH]c2ccccc12)NC(=O)[C@H](Cc1ccc(O)cc1)NC(=O)[C@@H](N)CCCCN)C(=O)N[C@@H](CC(C)C)C(=O)N[C@@H](CC(N)=O)C(=O)N[C@H](C(=O)N1CCC[C@H]1C(=O)N[C@@H](C)C(=O)N[C@@H](CO)C(=O)N[C@H](C(=O)N[C@H]1CSSC[C@@H](C(=O)N[C@@H](Cc2c[nH]c3ccccc23)C(=O)N[C@@H](CO)C(=O)N[C@@H](CCC(N)=O)C(=O)N[C@@H](CCSC)C(=O)N[C@@H](CC(C)C)C(=O)N[C@@H](CC(C)C)C(=O)N[C@@H](Cc2ccc(O)cc2)C(=O)N[C@@H](CCCCN)C(=O)N[C@@H](CCCCN)C(=O)N[C@@H](CO)C(N)=O)NC(=O)[C@H](Cc2ccc(O)cc2)NC(=O)[C@H](CCC(=O)O)NC(=O)[C@H](CC(=O)O)NC1=O)C(C)C)C(C)C [SSB] (H-KYWILNVPASVCDEYCWSQMLLYKKS-NH2; disulfide 12-16; N-terminus assumed)	52.01 ± 11.02	73.76 ± 6.37	3.15	28.1 ± 6.0	33.3 ± 7.9	42.7 ± 7.4	26	75	68	65	10.10 ± 7.22	74.46 ± 5.00	9.68	12.84 ± 4.19	Solubility ([4]; in 30%ACN/70%H2O): 1000 µg/mL; LD50 in zebrafish larvae (zebrafish larvae; ref [14],[53]): 10.88 µM; Toxicity relative to the linear peptide (zebrafish larvae; zebrafish model, ref [14]): less toxic than the linear peptide; Effect on voltage-dependent potassium current ([6]; up to 10 µM): no effect on IKv was observed; Antiepileptic and neuroprotective activities [9]: displayed antiepileptic and neuroprotective activities; Block of voltage-gated sodium channels in vertebrates [7]: effective blockers of voltage-gated sodium channels in vertebrates; Effect on 6-OHDA-induced neurotoxicity ([10]; listed as folded PpVα): reversing the 6-hydroxydopamine (6-OHDA)-induced neurotoxicity on zebrafish locomotor behavior; also recorded: preventing the 6-OHDA-induced excessive ROS generation and subsequent dopaminergic neuron loss; Effect on 6-OHDA-induced neurotoxicity ([10]; listed as folded peptide): more effective than the linear unfolded peptide in suppressing 6-OHDA-induced neurotoxicity on locomotor behavior in zebrafish; Effect on 6-OHDA-induced neurotoxicity ([10]; listed as folded-PpVα): prevented the 6-OHDA-induced excessive ROS generation and subsequent dopaminergic neuron loss
NC1=N[C@H](O)[C@H]2[C@H]3O[C@]4(O)O[C@@H]([C@@H](O)[C@@]2(N1)[C@@H]4O)[C@]3(O)CO [tetrodotoxin]															Cell viability with TTX [8]: 85.41%; Neuroprotection against veratridine, in words [8]: almost wholly reverted the cellular damage
COc1ccc(C(=O)O[C@H]2CC[C@@]3(C)[C@@H]4CC[C@H]5[C@]6(O)C[C@H](O)[C@@]7(O)[C@@H](CN8C[C@@H](C)CC[C@H]8[C@@]7(C)O)[C@]6(O)C[C@@]53O[C@]24O)cc1OC [veratridine]															Cell viability, inducer alone (VTD) ([8]; veratridine 24 h, no peptide, untreated control 100, mean): 49.21%; Mortality rate compared with untreated cells ([8]; veratridine, 24 h): 50%
